Experimental data published in patent US9260473B2, “Bivalent multifunctional ligands targeting Aβ oligomers as treatment for Alzheimer's disease” (Virginia Commonwealth University, priority 2010, dated 2016).

Assays:
MC65 cells = experiment: Cytotoxicity assay in MC65 cells (MTS, +TC/−TC); assay type: cell-based, human
Excerpt: Protective effects of 14 on AβOs-induced cytotoxicity in MC65 cells and differentiated human neuroblastoma SH-SY5Y cells. […] To further verify whether 14 can protect cells from extracellular AβOs-induced cytotoxicity, all trans-retinoic acid differentiated human SH-SY5Y cells were employed. […] This may further indicate that while both 1 and 14 can bind to AβOs, CM/LR anchorage of 14 can increase its accessibility to intracellular target AβOs. Since CM/LR are crucial for many aspects of cell signaling and functions, 14 was further evaluated for its potential cytotoxicity in mouse spleen and natural killer (NK) cells.
Cytotoxicity assay in MC65 cells. MC65 cells were seeded in 96-well plates (4×10^4 cells/well) at 37° C., 5% CO2 for 24 hrs. The medium was removed and washed with PBS twice. Opti-MEM and test compounds were added under +TC and −TC conditions. The plates were incubated at 37° C., 5% CO2 for 72 hrs, then 20 uL CellTiter 96 AQueous One Solution (Promega, Madison, Wis.) were added to each well and the plates were incubated at 37° C., 5% CO2 for 2-4 hrs. The plates were read at 490 nm using FlexStation III plate reader (Molecular Devices). The blank with only test compounds in Opti-MEM was set up as background control for all of the tested concentrations. Each data point was averaged from six replicates and the experiments were independently repeated at least three times.

AβOs [1] = experiment: Western blot assay of AβOs formation in MC65 cells (6E10 antibody); assay type: cell-based, human; conditions: 10 μM, 24 hrs after removal of TC
Excerpt: Inhibition of AβOs production by designed BMAOIs. […] The whole cell assay is a composite of not only Aβ oligomerization inhibition but also permeability, stability and other factors will validate the accessibility and function of our BMAOIs. MC65 is a human neuroblastoma cell line that conditionally expresses C99, the C-terminus fragment of APP using tetracycline (TC) as transgene suppressor.^38 Upon removal of TC, these cells can produce intracellular Aβ aggregates including small AβOs. […] All BMAOIs were first evaluated at a single concentration of 10 μM. Candidate compounds with inhibitory activities at this concentration were further evaluated in a dose-dependent manner in the following assays. […]
Western blot assay. […] Pellet was lysed by sonication in 1× lysis buffer (62.5 mM Tris base, pH6.8, 2% SDS, 50 mM DTT, 10% glycerol, 0.1% bromphenol blue, and […] each chymostatin, leupeptin, aprotinin, pepstatin, and soybean trypsin inhibitor) and protein level was determined using Coomassie Protein Assay Reagent (Pierce, Rockford, Ill.). […]

AβOs [2] = experiment: Immunocytochemistry assay of AβOs in MC65 cells (A11 antibody); assay type: cell-based, human; conditions: 10 μM, 24 hrs after removal of TC
Description: MC65 cells were treated with the indicated compounds (10 μM) immediately after the removal of TC. After 24 hrs, the cells were fixed and immunofluorescently stained for AβOs, CM/LR, and nucleus and imaged with a Leica TCS-SP2 AOBS confocal laser scanning microscope. Five areas were examined.
Immunocytochemistry assay. MC65 cells were plated onto Lab-Tee chamber slides (1×10^4 cells/well). After 24 hrs incubation at 37° C. and 5% CO2, Opti-MEM was added (with or without TC) and followed by test compounds. MC65 cells were incubated for 24 hrs. MC65 cells were rinsed 3× with PBS and incubated with Alexa 488-conjugated CTX-B (10 ug/mL) for 15 min on ice. After rinsing once with ice-cold PBS, cells were fixed for 30 min with 4% paraformaldehyde. MC65 cells were permeabilized for 30 min with 0.1% Triton X 100. Then MC65 cells were stained with A11 rabbit antibody followed by anti-rabbit Alexa 568 (1:500). Finally MC65 cells were treated with DAPI (5 ug/mL) and mounted with Vectashield Mounting Media. Cell fluorescence was analyzed by a Leica TCS-SP2 AOBS confocal laser scanning microscope equipped with blue diode, Argon, and 3 HeNe (lasers as well as a spectrophotometer based detection system with variable detector windows) using excitation lines at 355 nm, 488 nm, and 568 nm for DAPI, Alexa 488-conjugated CTX-B, and Alexa Fluor 568 donkey anti-rabbit IgG. […]

Aβ42 = target: T1, Aβ42 (Homo sapiens, UniProt P05067); experiment: Aβ42 oligomerization inhibition assay (Western blot); assay type: biochemical; conditions: Aβ42 5 μM, compound 20 μM, 4 hrs at 37° C.
T1 construct: Aβ42 was obtained from American Peptide, Inc. (Sunnyvale, Calif.); purchased American Peptide, Inc. (Sunnyvale, Calif.)
Description: In order to confirm 14 can bind to AβOs, the inhibition of Aβ42 oligomerization was performed and assessed using Western blot analysis as described in literature^29 in order to investigate binding interactions of 14 with Aβ42 and the CM/LR of MC65 cells. Briefly, Aβ42 (5 μM) was incubated with or without compounds (20 μM), then samples were analyzed by Western blot using 6E10 antibody.
Aβ42 oligomerization inhibition assay. An aliquot of Aβ42 (0.045 mg) was dissolved in 20 μL of DMSO and diluted in Ham's F-12 media without phenol red (Caisson's Laboratory, Inc., Utah). […] After incubation, the samples (50 μL) were spun down at 14,000×g for 10 min. The supernatant (20 μL) was mixed with an equal part of Tricine sample buffer without reducing agents (Bio-Rad). The unaggregated Aβ42 control was not incubated at 37° C., and mixed with sample buffer (no centrifuging) and stored at −80° C. before it was electrophoresed. Samples (25 μL) were electrophoresed on a 10-20% Tris-Tricine gel, transferred to PVDF membrane, and blocked with 10% nonfat milk in PBS for 30 min. […] The proteins were visualized by Western Blot Chemiluminescence Reagent (NEN Life Science Products, Boston, Mass.).

[3] = tested on: intracellular oxidative stress; experiment: DCFH-DA antioxidation assay in MC65 cells; assay type: cell-based, human; conditions: −TC, 24 hrs
Description: DCFH-DA antioxidation assay. MC65 cells were seeded in 96-well plates (4×10^4 cells/well). After incubation at 37° C., 5% CO2 for 24 hrs, the medium was removed and washed with PBS. Opti-MEM and test compounds were added (+TC, −TC, and blank with only test compounds). MC65 cells were incubated at 37° C., 5% CO2 for 24 hrs. Then DCFH-DA in Opti-MEM was added to each well (final DCFH-DA concentration was 25 uM) and incubate at 37° C., 5% CO2 for 30 min. The medium was removed and replaced with fresh opti-MEM and plates were read for fluorescence intensity at 485 nm (excitation)/530 nm (emission) using FlexStation III plate reader (Molecular Devices).

SH-SY5Y cells = experiment: Cytotoxicity assay in differentiated SH-SY5Y cells treated with AβOs; assay type: cell-based, human; conditions: AβOs 1 μM
Description: Cytotoxicity assay in differentiated SH-SY5Y cells. SH-SY5Y cells were plated at 10,000 cells/well in type 1 collagen coated 96-well plates (Invitrogen) and were differentiated in Opti-MEM supplemented with 2% B-27 (Invitrogen) and 10 μM all-trans-retinoic acid for 7 days. The medium was removed and replaced with fresh maintenance medium. Freshly prepared Aβ42 oligomers in Ham's F-12 medium (1 μM) was added to cells for 48 hrs at 37° C. with or without test compounds. After treatment, 20 uL CellTiter 96 AQueous One Solution (Promega, Madison, Wis.) were added to each well and the plates were incubated at 37° C., 5% CO2 for 2-4 hrs. The plates were read at 490 nm in FlexStation III plate reader (Molecular Devices). Each data point was averaged from six replicates and the experiments were independently repeated at least three times.

T1 sequence (P05067 672-713 limits assumed): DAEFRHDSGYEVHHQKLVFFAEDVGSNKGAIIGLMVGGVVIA

CC(=O)N[C@@H](CS)C(=O)O [NAC, N-acetylcysteine]
rescue of MC65 cells from AβOs-induced cytotoxicity (MC65 cells; −TC): 48%

Cc1c(C)c2c(c(C)c1O)CCC(C)(C(=O)O)O2 (stereo not shown) [trolox, 6-hydroxy-2,5,7,8-tetramethyl chroman-2-carboxylic acid]
rescue of MC65 cells from AβOs-induced cytotoxicity (MC65 cells; −TC, 32 μM): completely rescued

COc1cc(/C=C/C(=O)CC(=O)/C=C/c2ccc(O)c(OC)c2)ccc1O [compound 1, curcumin, reference compound]
inhibition of the formation of AβOs (Western blot) (AβOs [1]): did not exhibit inhibition
formation of AβOs (A11 immunocytochemistry) (AβOs [2]): slightly suppressed
toxic effects on MC65 cell viability in the presence of TC (MC65 cells; +TC, tested concentrations, 72 hrs, MTS): no toxic effects
protective effects on MC65 cell viability upon removal of TC (MC65 cells; −TC, 72 hrs, MTS): minimal protective effects
inhibition of oligomerization of Aβ42 (Aβ42): inhibited the oligomerization of Aβ42
suppression of intracellular oxidative stress (DCFH-DA fluorescence) [3]: suppressed the intracellular oxidative stress in a dose-depndent manner
protection of SH-SY5Y cell viability from AβOs (SH-SY5Y cells; 48 hrs, 16 μM): not at 16 μM
protection of SH-SY5Y cell viability from AβOs (SH-SY5Y cells; 48 hrs, 2, 4, and 8 μM): moderate protective activities
